Source: PubChem BioAssay AID258 (DTP/NCI, 2004)
Several values for one entry are separate records, joined by “and”; a condition that tells them apart may be missing. Equal entries are not always repeated. Inconclusive results and toxic doses are left out.

Test system: CD2F1 mice, L1210 leukemia sc, survival T/C
Experiment: NCI In Vivo Anticancer Drug Screen. Data for tumor model L1210 Leukemia (subcutaneous) in CD2F1 (CDF1) mice
Details: endpoint: median survival time, higher = longer survival
How it was run: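 Read-out: survival or tumor size. Value = treated (T) / vehicle control (C). Transplantable tumor in mice.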

[1] = dose: 14.0 mg/kg/injection, schedule: Q01DX Z (sc), vehicle: methylcellulose (MC)
[2] = dose: 23.0 mg/kg/injection, schedule: Q01DX Z (sc), vehicle: methylcellulose (MC)
[3] = dose: 39.0 mg/kg/injection, schedule: Q01DX Z (sc), vehicle: methylcellulose (MC)
[4] = dose: 108.0 mg/kg/injection, schedule: Q01DX Z (sc), vehicle: methylcellulose (MC)
[5] = dose: 3.0 mg/kg/injection, schedule: Q01DX Z (sc), vehicle: saline
[6] = dose: 5.0 mg/kg/injection, schedule: Q01DX Z (sc), vehicle: saline

With CN(C)c1nc(N(C)C)nc(N(C)C)n1 the T/C (dose: 19.0 mg/kg/injection, schedule: Q01DX009 (ip), vehicle: saline with Tween-80) was 97 % of control, the T/C (dose: 20.0 mg/kg/injection, schedule: Q01DX009 (ip), vehicle: saline with Tween-80) was 106 % of control and the T/C (dose: 20.0 mg/kg/injection, schedule: Q01DX009 (sc), vehicle: saline) was 107 % of control. The T/C (dose: 37.5 mg/kg/injection, schedule: Q01DX009 (ip), vehicle: saline with Tween-80) was 91 % of control, the T/C (dose: 40.0 mg/kg/injection, schedule: Q01DX009 (ip), vehicle: saline with Tween-80) was 102 % of control and the T/C (dose: 40.0 mg/kg/injection, schedule: Q01DX009 (sc), vehicle: saline) was 100 % of control. The T/C (dose: 75.0 mg/kg/injection, schedule: Q01DX009 (ip), vehicle: saline with Tween-80) was 104 % of control, the T/C (dose: 80.0 mg/kg/injection, schedule: Q01DX009 (ip), vehicle: saline with Tween-80) was 106 % of control and the T/C (dose: 80.0 mg/kg/injection, schedule: Q01DX009 (sc), vehicle: saline) was 100 % of control. The T/C (dose: 150.0 mg/kg/injection, schedule: Q01DX009 (ip), vehicle: saline with Tween-80) was 91 % of control, the T/C (dose: 160.0 mg/kg/injection, schedule: Q01DX009 (ip), vehicle: saline with Tween-80) was 109 % of control and 110 % of control and the T/C (dose: 160.0 mg/kg/injection, schedule: Q01DX009 (sc), vehicle: saline) was 113 % of control. The T/C (dose: 240.0 mg/kg/injection, schedule: Q01DX009 (ip), vehicle: saline with Tween-80) was 90 % of control.

CS(=O)(=O)OCCCCOS(C)(=O)=O was tested, and the T/C (dose: 8.4 mg/kg/injection, schedule: Q01DX Z (sc), vehicle: methylcellulose (MC)) was 100 % of control, the T/C [1] was 100 % of control and the T/C [2] was 100 % of control. The T/C [3] was 100 % of control, the T/C (dose: 65.0 mg/kg/injection, schedule: Q01DX Z (sc), vehicle: methylcellulose (MC)) was 100 % of control and the T/C [4] was 100 % of control.

For COc1cc2c(c(OC)c1OC)-c1ccc(N)c(=O)cc1[C@@H](NC(C)=O)CC2, the T/C (dose: 1.0 mg/kg/injection, schedule: Q01DX Z (sc), vehicle: water) was 90 % of control, the T/C (dose: 2.0 mg/kg/injection, schedule: Q01DX Z (sc), vehicle: water) was 109 % of control and the T/C (dose: 4.0 mg/kg/injection, schedule: Q01DX Z (sc), vehicle: water) was 109 % of control. The T/C (dose: 8.0 mg/kg/injection, schedule: Q01DX Z (sc), vehicle: water) was 109 % of control and the T/C (dose: 16.0 mg/kg/injection, schedule: Q01DX Z (sc), vehicle: water) was 109 % of control.

In the case of Nc1nc2ncn(O)c2c(=O)[nH]1, the T/C (dose: 4.5 mg/kg/injection, schedule: Q01DX009 (ip), vehicle: other) is reported as 278 % of control, the T/C (dose: 7.5 mg/kg/injection, schedule: Q01DX009 (ip), vehicle: other) is reported as 164 % of control and the T/C (dose: 12.5 mg/kg/injection, schedule: Q01DX009 (ip), vehicle: other) is reported as 268 % of control. The T/C (dose: 20.83 mg/kg/injection, schedule: Q01DX009 (ip), vehicle: other) was 113 % of control.

For S=c1nc[nH]c2nc[nH]c12.[Ag], the T/C (dose: 100.0 mg/kg/injection, schedule: Q01DX Z (sc), vehicle: water) was 100 % of control, the T/C (dose: 200.0 mg/kg/injection, schedule: Q01DX Z (sc), vehicle: water) was 100 % of control and the T/C (dose: 400.0 mg/kg/injection, schedule: Q01DX Z (sc), vehicle: water) was 100 % of control. For the same compound, the T/C (dose: 800.0 mg/kg/injection, schedule: Q01DX Z (sc), vehicle: water) was 100 % of control and the T/C (dose: 1600.0 mg/kg/injection, schedule: Q01DX Z (sc), vehicle: water) was 100 % of control.

O=C(Nc1cccc(C2=NCCN2)c1)c1ccc(-c2ccc(C(=O)Nc3cccc(C4=NCCN4)c3)cc2)cc1 was tested, and the T/C (dose: 23.0 mg/kg/injection, schedule: Q01DX Z (sc), vehicle: water) was 110 % of control, the T/C (dose: 39.0 mg/kg/injection, schedule: Q01DX Z (sc), vehicle: water) was 105 % of control and the T/C (dose: 65.0 mg/kg/injection, schedule: Q01DX Z (sc), vehicle: water) was 100 % of control. For the same compound, the T/C (dose: 108.0 mg/kg/injection, schedule: Q01DX Z (sc), vehicle: water) was 105 % of control and the T/C (dose: 180.0 mg/kg/injection, schedule: Q01DX Z (sc), vehicle: water) was 100 % of control.

NS(=O)(=O)OCCCCCCCOS(N)(=O)=O was tested, and the T/C (dose: 30.0 mg/kg/injection, schedule: Q01DX009 (ip), vehicle: saline with Tween-80) was 124 % of control, the T/C (dose: 83.3 mg/kg/injection, schedule: Q01DX009 (ip), vehicle: saline with Tween-80) was 179 % of control and the T/C (dose: 138.8 mg/kg/injection, schedule: Q01DX009 (ip), vehicle: saline with Tween-80) was 118 % of control.

In the case of O=C[C@@H](CO)O[C@H](C=O)c1c[nH]c(=O)[nH]c1=O, the T/C (dose: 54.0 mg/kg/injection, schedule: Q04DX003 (ip), vehicle: saline) is reported as 106 % of control and the T/C (dose: 90.0 mg/kg/injection, schedule: Q04DX003 (ip), vehicle: saline) is reported as 123 % of control.

For CCOC(=O)c1c[nH]c2oc(/C=N/N3CC(CN4CCOCC4)OC3=O)cc2c1=O (centres undefined), the T/C (dose: 25.0 mg/kg/injection, schedule: Q01DX009 (ip), vehicle: acid diluted with saline) was 101 % of control, the T/C (dose: 50.0 mg/kg/injection, schedule: Q01DX009 (ip), vehicle: acid diluted with saline) was 109 % of control and the T/C (dose: 50.0 mg/kg/injection, schedule: Q01DX009 (ip), vehicle: other) was 102 % of control. The T/C (dose: 79.0 mg/kg/injection, schedule: Q01DX005 (ip), vehicle: other) was 108 % of control and 111 % of control, the T/C (dose: 100.0 mg/kg/injection, schedule: Q01DX009 (ip), vehicle: acid diluted with saline) was 110 % of control and the T/C (dose: 118.7 mg/kg/injection, schedule: Q01DX005 (ip), vehicle: other) was 109 % of control and 119 % of control. The T/C (dose: 178.0 mg/kg/injection, schedule: Q01DX005 (ip), vehicle: other) was 113 % of control, the T/C (dose: 200.0 mg/kg/injection, schedule: Q01DX009 (ip), vehicle: acid diluted with saline) was 155 % of control and the T/C (dose: 400.0 mg/kg/injection, schedule: Q01DX005 (ip), vehicle: other) was 198 % of control. For the same compound, the T/C (dose: 400.0 mg/kg/injection, schedule: Q01DX009 (ip), vehicle: acid diluted with saline) was 156 % of control.

O=NN(CCCl)C(=O)NC1CC2CCC1C2 (centres undefined) was tested, and the T/C (dose: 3.75 mg/kg/injection, schedule: Q01DX Z (sc), vehicle: carboxymethylcellulose (CMC)) was 94 % of control, the T/C (dose: 7.5 mg/kg/injection, schedule: Q01DX Z (sc), vehicle: carboxymethylcellulose (CMC)) was 94 % of control and the T/C (dose: 15.0 mg/kg/injection, schedule: Q01DX Z (sc), vehicle: carboxymethylcellulose (CMC)) was 117 % of control. For the same compound, the T/C (dose: 30.0 mg/kg/injection, schedule: Q01DX Z (sc), vehicle: carboxymethylcellulose (CMC)) was 288 % of control and the T/C (dose: 60.0 mg/kg/injection, schedule: Q01DX Z (sc), vehicle: carboxymethylcellulose (CMC)) was 200 % of control.

In the case of N#[N+]c1cnc([O-])[nH]c1=O, the T/C [1] is reported as 100 % of control, the T/C [2] is reported as 100 % of control and the T/C [3] is reported as 122 % of control. The T/C (dose: 39.0 mg/kg/injection, schedule: Q01DX Z (sc), vehicle: other) was 100 % of control and the T/C (dose: 65.0 mg/kg/injection, schedule: Q01DX Z (sc), vehicle: other) was 116 % of control.

For S=c1nc[nH]c2c1ncn2C1CCCC1, the T/C [4] was 100 % of control, the T/C (dose: 180.0 mg/kg/injection, schedule: Q01DX Z (sc), vehicle: methylcellulose (MC)) was 100 % of control and the T/C (dose: 300.0 mg/kg/injection, schedule: Q01DX Z (sc), vehicle: methylcellulose (MC)) was 100 % of control. The T/C (dose: 500.0 mg/kg/injection, schedule: Q01DX Z (sc), vehicle: methylcellulose (MC)) was 100 % of control, the T/C (dose: 833.0 mg/kg/injection, schedule: Q01DX Z (sc), vehicle: methylcellulose (MC)) was 100 % of control and the T/C (dose: 1388.0 mg/kg/injection, schedule: Q01DX Z (sc), vehicle: methylcellulose (MC)) was 100 % of control.

CSCS(=O)C[C@H](CO)NC(=O)/C=C/c1c(C)[nH]c(=O)[nH]c1=O (some centres undefined) was tested, and the T/C (dose: 1.08 mg/kg/injection, schedule: Q01DX Z (sc), vehicle: saline) was 110 % of control, the T/C (dose: 1.8 mg/kg/injection, schedule: Q01DX Z (sc), vehicle: saline) was 110 % of control and the T/C [5] was 100 % of control. The T/C [6] was 90 % of control.

C[C@]12CC[C@H](OC3OC(CO)C(O)C(O)C3O)C[C@H]1CC[C@@H]1[C@@H]2CC[C@]2(C)[C@@H](C3=CCOC3=O)CC[C@]12O (some centres undefined) was tested, and the T/C [5] was 110 % of control, the T/C [6] was 110 % of control and the T/C (dose: 8.4 mg/kg/injection, schedule: Q01DX Z (sc), vehicle: saline) was 110 % of control.

In the case of ONc1nc(NO)c2[nH]cnc2n1, the T/C (dose: 8.0 mg/kg/injection, schedule: Q01DX Z (sc), vehicle: steriod suspending solution) is reported as 100 % of control, the T/C (dose: 32.0 mg/kg/injection, schedule: Q01DX Z (sc), vehicle: steriod suspending solution) is reported as 175 % of control and the T/C (dose: 64.0 mg/kg/injection, schedule: Q01DX Z (sc), vehicle: steriod suspending solution) is reported as 200 % of control.
